# How the values were obtained:
# [1] = biological target: T1, AnBLUF46 (Acinetobacter nosocomialis, UniProt A0AA36NWK2); assay: UV-vis absorption and fluorescence emission of the co-purified flavin; format: binding; details: 20 mM Tris-HCl, 200 mM NaCl, pH 8.0, 15 °C; flavin as purified with the protein, fully oxidized; flavin identity assigned by the authors, no separate analysis
# T1 construct: gene ANICBIBUN_11750; full length, 147 residues, N-terminal His-tag, pET28-TEV, E. coli BL21 (pLysS), Ni-NTA; tag cleavage not mentioned
# T1 sequence (A0AA36NWK2 1-147): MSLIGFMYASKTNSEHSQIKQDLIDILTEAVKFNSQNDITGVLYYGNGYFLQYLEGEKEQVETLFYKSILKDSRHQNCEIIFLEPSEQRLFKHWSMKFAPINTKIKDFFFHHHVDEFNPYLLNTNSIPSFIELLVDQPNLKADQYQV
# [2] = biological target: T2, AnBLUF65 (Acinetobacter nosocomialis, UniProt A0AA36P071); assay: as above; format: binding; details: 20 mM Tris-HCl, 200 mM NaCl, pH 8.0, 15 °C; flavin as purified with the protein, fully oxidized; flavin identity assigned by the authors, no separate analysis
# T2 construct: gene ANICBIBUN_09924; full length, 156 residues, N-terminal His-tag, synthetic gene in pET28a(+), E. coli BL21 (pLysS), Ni-NTA
# T2 sequence (A0AA36P071 1-156): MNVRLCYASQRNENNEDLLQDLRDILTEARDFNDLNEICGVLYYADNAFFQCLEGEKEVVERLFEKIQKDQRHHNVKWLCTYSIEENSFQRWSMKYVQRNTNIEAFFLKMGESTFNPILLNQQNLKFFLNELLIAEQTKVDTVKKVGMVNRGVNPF
compound,measurement,setting,value
Cc1cc2nc3c(=O)[nH]c(=O)nc-3n(C[C@H](O)[C@H](O)[C@H](O)COP(=O)(O)OP(=O)(O)OC[C@H]3O[C@@H](n4cnc5c(N)ncnc54)[C@H](O)[C@@H]3O)c2cc1C [FAD],UV-vis absorption and fluorescence emission of the co-purified flavin,[1],blue-shifted compared with free FAD in the same working buffer
same,UV-vis absorption and fluorescence emission of the co-purified flavin,[2],blue-shifted compared with free FAD in the same working buffer

# Source: paper PMC9020721, “Characterization of BLUF-photoreceptors present in Acinetobacter nosocomialis” (PLoS ONE, 2022)
